In PMC12261233, “Photoactivatable Cyclometalated Ir(III) Compound Penetrates the Blood-Brain Barrier in 3D Spheroidal and Advanced 3D Organoid Models of Inherently Resistant and Aggressive Brain Tumors” (ACS Pharmacology & Translational Science, 2025):

How the values were obtained:
[1] = tested on: cerebral organoid with U87MG spheroid implant; assay: Distribution of compound in organoid-spheroid implant model (confocal); type: cell-based, human; settings: 5 μM
Protocol: An implant fusion model was established to monitor the distribution of Ir4 within the tumor, represented by the implanted tumorspheres generated from U87MG, and healthy tissue, represented by the hiPSC-derived cerebral organoid. Before the implantation procedure, spheroids derived from U87MG glioblastoma were cultured for 72 h under 3D forming conditions using ULA plates (96-well U-shaped plate, Corning) in DMEM-F12 supplemented with 2% B27, epidermal growth factor (EGF) at 20 ng mL^–1, fibroblast growth factor 2 (FGF2) at 10 ng mL^–1, and BSA (0.15%). Cerebral organoids were generated through a four-step directed differentiation process from human induced pluripotent stem cells (hiPSCs, Gibco). The hiPSCs were cultured on Geltrex matrix (hESC-Qualified, Reduced Growth Factor Basement Membrane Matrix; Gibco) in StemFlex basal medium (DMEM/F12, Ham, 1:1) fully supplemented with StemFlex supplement (Gibco). […] After the initial differentiation phase, early organoids were monitored for the development of optically clear neuroectoderm (characterized by an optically bright, translucent surface) and the formation of large buds of translucent ectoderm that were not radially organized. […] The samples were then transferred to confocal Petri dishes containing drug-free cerebral maturation medium and analyzed using a confocal microscope (Leica CM SP5, Leica, Germany).

[2] = tested on: U87MG spheroids; assay: Detection of ROS (CellRox) and PPI in spheroids by confocal microscopy; type: cell-based, human
Protocol: We evaluated ROS induction in glioblastoma U87MG spheroids treated with Ir4 at its IC50 concentration for 3 h, followed by blue laser light irradiation (405 nm, 60 s, 1 mW). ROS levels were quantified using the CellRox probe, with PPI employed to assess immediate cell death. Z-stack imaging was performed before irradiation and at 1, 15, and 30 min postirradiation (Figure , panel I). Mean fluorescence intensity in the z-stack projections quantified ROS generation (Figure , panel II).
The spheroids were exposed to Ir4 (IC50, U87MG 3D, 72 h) for 3 h or maintained under drug-free conditions (control). Subsequently, the samples were stained with CellRox reagent (5 μM) and PPI (8 μg mL^–1) before being irradiated for 60 s with blue laser light (405 nm, 1 mW). Imaging of the samples was conducted before or immediately after the irradiation (1 min postirradiation) and at defined time intervals (15 and 30 min). The fluorescence scanning was performed sequentially in z-stack mode (10 z-stacks). Postirradiation imaging was conducted for a total of 90 min, with only the data collected up to 30 min being presented and quantified. The experiments were independently replicated in triplicate.

[3] = tested on: U87MG spheroids; assay: Morphology and diameter of spheroids after treatment and irradiation (phase contrast); type: cell-based, human; settings: 90 min treatment, 30 min blue light, 70 h drug-free incubation
Protocol: We further investigated the effects of treatment and irradiation on tumor spheroids by analyzing the morphology and diameter of spheroids from the U87MG cell line. Morphogenic parameters were assessed using phase contrast microscopy at 24-h intervals during the preformation phase and post-treatment, culminating at 144 h. Initial mean diameters of the spheroids were 280 ± 11 μm, increasing to 550 μm after 70 h of drug-free incubation. U87MG spheroids proliferated rapidly. Rapidly growing tumor cells are generally more sensitive to treatment, whereas quiescent tumor cells are moderately sensitive to metal-based compounds.
The spheroid models underwent treatment with varying concentrations of compounds, focusing on equitoxic concentrations during blue light exposure. The analysis included both irradiated and nonirradiated samples to assess nonspecific toxicity under dark conditions. […]
Figure S30. […] Phase contrast microphotographs were obtained for spheroids generated from U87MG cells (panel A), and the respective mean diameters were analyzed and shown in panel B for U87MG spheroids. […] Mean diameters for dark-incubated samples were analyzed at the same concentrations as those for irradiated samples to assess the impact of irradiation. […]

[4] = tested on: hCMEC/D3 cells; parameters: method as in number not printed (footnote c: Data taken from the ref); settings: comparison value; ref number not printed (footnote c: Data taken from the ref); cited from earlier work

Structure (SMILES)	distribution in organoid-spheroid fusion system [1]	PPI fluorescence intensity postirradiation ([2]; 15 and 30 min postirradiation)	ROS level compared to preirradiation level, 1 min ([2]; IC50 3 h, 405 nm 60 s 1 mW, 1 min postirradiation) [fold]	ROS level compared to preirradiation level, 15 min ([2]; IC50 3 h, 405 nm 60 s 1 mW, 15 min postirradiation) [fold]	ROS level compared to preirradiation level, 30 min ([2]; IC50 3 h, 405 nm 60 s 1 mW, 30 min postirradiation) [fold]	ROS level versus untreated controls before laser irradiation ([2]; IC50 (U87MG 3D, 72 h) for 3 h, CellRox, dark) [times]	effect on spheroid diameter / growth [3]	P app [4]
CCCCn1c2[n+](c3cc(C(=O)OC)ccc31)[Ir-3]13([Cl])([c]4ccccc4-2)[n+]2ccccc2-c2cc(-c4ccc(C)cc4)cc([n+]21)-c1cccc[n+]13.F[P-](F)(F)(F)(F)F [Ir4]	predominantly accumulated in malignant tissues	slight but significant increase	1.8	2.3	2.5	1.8	spheroid diameters decreased below their initial size	
Cn1nnc2c(C(N)=O)ncn2c1=O [Temozolomide, reference compound]								0.36 × 10^–4 cm·s^–1
